Experiment [1] concerns the target T1, Full-length (FL)-PRMT5-MEP50 enzyme complex (Homo sapiens, UniProt O14744).
T1 construct: Full-length (FL)-PRMT5-MEP50 enzyme complex (recombinant proteins from baculovirus-transfected Sf21 cells: FL-PRMT5; MW=73837 kDa and FL-MEP50; MW=38614); made in house; host or cells: baculovirus-transfected Sf21 cells
Nature of the experiment: PRMT5-MEP50 Enzyme Methylation Assay (Version A). The format is biochemical. The procedure, abridged:
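Compound was pre-incubated with enzyme for 60 min, then reacted 150 min at 37° C. at final 1.0 nM PRMT5-MEP50, 15 μM SAM and 75 nM biotinylated H4R3(Me1) peptide, in 50 mM Bicine pH 8.0 with 1% DMSO. SAMDI mass-spectrometric readout of Me1→Me2 conversion. EC50 from 4- or 7-parameter regression.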

Experiment [2] relates to symmetric dimethylation of arginine (SDMA) of PRMT5 substrates in MCF-7 cells. Briefly: PRMT5 Cell Target Engagement (TE) Assay. The experiment is classed as cell-based. The settings on record: 3 days treatment, SDMA high content imaging. The procedure, abridged:
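MCF-7 cells treated 3 days at 37 °C with a ten-point 1:3 titration from 10000 nM. Fixed cells immunostained with anti-SDMA and Alexa488 secondary; nuclear fluorescence quantified by high-content imaging versus DMSO wells, with IC50 from a 4-parameter fit.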

[3] abbreviates: second value of 7 parameter biphasic fit, read-out: Enzyme Methylation Assay Version A (EC50 2).
Setting [4] is: single EC50 = 4 parameter single site sigmoidal fit, EC50 1 = first value of 7 parameter biphasic fit, read-out: Enzyme Methylation Assay Version A (EC50 or EC50 1).

Read-outs that look alike come from different tables or passages of the source.

22 compounds from patent US12441730B2, “PRMT5 inhibitors” (Merck Sharp & Dohme LLC, priority 2019, dated 2025) can be followed below.

T1 sequence (O14744 whole entry): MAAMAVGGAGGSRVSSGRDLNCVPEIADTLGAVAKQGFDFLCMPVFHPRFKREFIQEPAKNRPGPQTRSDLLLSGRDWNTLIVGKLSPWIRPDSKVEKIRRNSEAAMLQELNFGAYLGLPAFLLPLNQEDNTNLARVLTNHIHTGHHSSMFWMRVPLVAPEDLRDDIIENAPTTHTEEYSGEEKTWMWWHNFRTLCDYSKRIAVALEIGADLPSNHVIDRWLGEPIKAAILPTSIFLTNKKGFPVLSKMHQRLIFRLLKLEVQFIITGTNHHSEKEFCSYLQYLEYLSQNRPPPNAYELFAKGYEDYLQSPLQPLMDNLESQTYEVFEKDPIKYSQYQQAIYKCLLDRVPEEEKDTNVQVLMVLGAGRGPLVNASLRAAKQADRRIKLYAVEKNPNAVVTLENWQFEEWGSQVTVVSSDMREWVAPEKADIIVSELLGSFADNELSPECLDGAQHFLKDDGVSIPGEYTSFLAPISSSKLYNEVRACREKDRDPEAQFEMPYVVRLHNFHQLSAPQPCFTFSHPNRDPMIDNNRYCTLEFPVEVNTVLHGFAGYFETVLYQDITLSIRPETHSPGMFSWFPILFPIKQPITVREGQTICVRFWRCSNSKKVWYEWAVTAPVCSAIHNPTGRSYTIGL
T1 sequence (Q9BQA1 whole entry partner): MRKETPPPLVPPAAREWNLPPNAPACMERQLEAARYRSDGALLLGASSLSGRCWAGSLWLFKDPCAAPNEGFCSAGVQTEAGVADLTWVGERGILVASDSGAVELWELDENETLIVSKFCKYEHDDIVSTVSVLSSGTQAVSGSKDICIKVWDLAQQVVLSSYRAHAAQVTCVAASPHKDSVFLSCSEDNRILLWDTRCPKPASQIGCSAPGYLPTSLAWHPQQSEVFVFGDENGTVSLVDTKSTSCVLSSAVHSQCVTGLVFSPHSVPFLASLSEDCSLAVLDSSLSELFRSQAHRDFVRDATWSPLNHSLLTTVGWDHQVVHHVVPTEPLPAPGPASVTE

Take `O=C(c1cn2ccc(Cl)c(I)c2n1)N1CC[C@]2(Cc3ccccc3CN2)[C@H](O)C1` [Example 216, (7-chloro-8-iodoimidazo[1,2-a]pyridin-2-yl)[(3R,3′R)-3′-hydroxy-1,4-dihydro-1′H,2H-spiro[isoquinoline-3,4′-piperidin]-1′-yl]methanone]: the EC50 (in general, the concentration that produces a half-maximal response) in experiment [1] (setting [3]) was found to be 2.54 µM; in experiment [1] (setting [4]) it was 0.0263 µM; in experiment [2] (Homo sapiens, MCF7, 72 h), 0.711 µM.

As for `CC(O)c1cc(Br)cn2cc(C(=O)N3CC[C@]4(Cc5ccccc5CN4)[C@H](O)C3)nc12` (single isomer, unassigned) [Example 33, (6-bromo-8-((S or R)-1-hydroxyethyl)imidazo[1,2-a]pyridin-2-yl)((3R,3’R)-3′-hydroxy-1,4-dihydro-2H-spiro[isoquinoline-3,4′-piperidin]-1′-yl)methanone], the figures for the 50% effective concentration (EC50) in experiment [1] (setting [3]), in experiment [1] (setting [4]) and in experiment [2] were 0.215 µM, 0.000565 µM and 0.00371 µM, respectively.

As to `O=C(c1cc2ncc(C3CC3)cn2n1)N1CC[C@]2(Cc3ccccc3CN2)[C@H](O)C1` [Example 70, (6-cyclopropylpyrazolo[1,5-a]pyrimidin-2-yl)[(3R,3′R)-3′-hydroxy-1,4-dihydro-1′H,2H-spiro[isoquinoline-3,4′-piperidin]-1′-yl]methanone], the EC50 was determined as 0.24 µM in experiment [1] (setting [3]); 0.00027 µM in experiment [1] (setting [4]); 0.263 µM in experiment [2] (Homo sapiens, MCF7, 72 h).

Turning to `O=C1CCCN1CCOc1nc(Br)cn2cc(C(=O)N3CC[C@]4(Cc5ccccc5CN4)[C@H](O)C3)nc12` [Example 13, 1-(2-((6-bromo-2-((3R,3’R)-3′-hydroxy-1,4-dihydro-2H-spiro[isoquinoline-3,4′-piperidine]-1′-carbonyl)imidazo[1,2-a]pyrazin-8-yl)oxy)ethyl)pyrrolidin-2-one], the EC50 in experiment [1] (setting [3]) turned out to be 0.32 µM; in experiment [1] (setting [4]), 0.000406 µM; in experiment [2] (Homo sapiens, MCF7, 72 h) it was 0.00816 µM.

With `COC(C)c1cc(Br)c2nc(C(=O)N3CC[C@]4(Cc5ccccc5CN4)[C@H](O)C3)cn2c1` (single isomer, unassigned) [Example 60], the EC50 in experiment [1] (setting [3]) came to 0.271 µM; in experiment [1] (setting [4]) it was 0.000456 µM; in experiment [2] it was 0.00749 µM.

Consider `O=C(c1cn2ncc(Br)cc2n1)N1CC[C@]2(Cc3ccccc3CN2)[C@H](O)C1` [Example 71, (7-bromoimidazo[1,2-b]pyridazin-2-yl)[(3R,3′R)-3′-hydroxy-1,4-dihydro-1′H,2H-spiro[isoquinoline-3,4′-piperidin]-1′-yl]methanone], for which the concentration giving a half-maximal response (EC50) in experiment [1] (setting [3]) stood at 8.32 µM; in experiment [1] (setting [4]) it was 0.135 µM; in experiment [2] (Homo sapiens, MCF7, 72 h), 1.5 µM.

`CC(O)c1cc(C(F)(F)F)cn2cc(C(=O)N3CC[C@]4(Cc5ccccc5CN4)[C@H](O)C3)nc12` (single isomer, unassigned) [Example 108]: the EC50 in experiment [1] (setting [3]) came out at 0.207 µM; in experiment [1] (setting [4]), 0.00425 µM; in experiment [2] (Homo sapiens, MCF7, 72 h) it was 0.0129 µM.

As for `O=C(c1cn2cc(C3CC3)ncc2n1)N1CC[C@]2(Cc3ccccc3CN2)[C@H](O)C1` [Example 134, (6-cyclopropylimidazo[1,2-a]pyrazin-2-yl)[(3R,3′R)-3′-hydroxy-1,4-dihydro-1′H,2H-spiro[isoquinoline-3,4′-piperidin]-1′-yl]methanone], the half-maximal effective concentration (EC50) in experiment [1] (setting [4]) was found to be 0.143 µM; in experiment [2] (Homo sapiens, MCF7, 72 h), 0.184 µM.

Regarding `O=C(c1ccn2c(Br)cnc2n1)N1CC[C@]2(Cc3ccccc3CN2)[C@H](O)C1` [Example 57, (3-bromoimidazo[1,2-a]pyrimidin-7-yl)[(3R,3′R)-3′-hydroxy-1,4-dihydro-1′H,2H-spiro[isoquinoline-3,4′-piperidin]-1′-yl]methanone], the EC50 in experiment [1] (setting [3]) came out at 55 µM; in experiment [1] (setting [4]), 0.0631 µM; in experiment [2] (Homo sapiens, MCF7, 72 h) it was 2.19 µM.

In the case of `CC(n1ccc(C(=O)N2CC[C@]3(Cc4ccccc4CN3)[C@H](O)C2)cc1=O)C(F)(F)F` (single isomer, unassigned) [Example 102, 4-((3R,3′R)-3′-hydroxy-2,4-dihydro-1H-spiro[isoquinoline-3,4′-piperidin]-1′-ylcarbonyl)-1-((S or R)-1,1,1-trifluoropropan-2-yl)pyridin-2(1H)-one], the EC50 turned out to be 34.7 µM in experiment [1] (setting [3]), 0.0521 µM in experiment [1] (setting [4]) and 0.8 µM in experiment [2].

As to `COCCN(C)c1cc([C@@H](C)OC)c2nc(C(=O)N3CC[C@]4(Cc5ccccc5CN4)[C@H](O)C3)cn2c1` [Example 229, [(3R,3′R)-3′-hydroxy-1,4-dihydro-1′H,2H-spiro[isoquinoline-3,4′-piperidin]-1′-yl]{8-[(1R)-1-methoxyethyl]-6-[(2-methoxyethyl)(methyl)amino]imidazo[1,2-a]pyridin-2-yl}methanone], the EC50 in experiment [1] (setting [3]) is 0.234 µM; in experiment [1] (setting [4]), 0.000602 µM; in experiment [2] (Homo sapiens, MCF7, 72 h) it was 0.0226 µM.

As to `Cc1cnc2nc(C(=O)N3CC[C@]4(Cc5ccccc5CN4)[C@H](O)C3)cn2c1C` [Example 127, (5,6-dimethylimidazo[1,2-a]pyrimidin-2-yl)[(3R,3′R)-3′^-hydroxy-1,4-dihydro-1′H,2H-spiro[isoquinoline-3,4′-piperidin]-1′-yl]methanone], the concentration for a half-maximal effect (EC50) in experiment [1] (setting [3]) is 34.3 µM; in experiment [1] (setting [4]), 0.0617 µM; in experiment [2] (Homo sapiens, MCF7, 72 h), 3.95 µM.

In the case of `COc1ccc2nc(C(=O)N3CC[C@]4(Cc5ccccc5CN4)[C@H](O)C3)cn2c1` [Example 43, ((3R,3’R)-3′-hydroxy-1,4-dihydro-2H-spiro[isoquinoline-3,4′-piperidin]-1′-yl)(6-methoxyimidazo[1,2-a]pyridin-2-yl)methanone], the concentration giving a half-maximal response (EC50) in experiment [1] (setting [3]) is 1.44 µM; in experiment [1] (setting [4]), 0.00322 µM; in experiment [2] (Homo sapiens, MCF7, 72 h), 0.0191 µM.

`O=C(c1cn2cc(Br)nc(OC3COC3)c2n1)N1CC[C@]2(Cc3ccccc3CN2)[C@H](O)C1` [Example 12, (6-bromo-8-(oxetan-3-yloxy)imidazo[1,2-a]pyrazin-2-yl)((3R,3’R)-3′-hydroxy-1,4-dihydro-2H-spiro[isoquinoline-3,4′-piperidin]-1′-yl)methanone]: the concentration for a half-maximal effect (EC50) in experiment [1] (setting [3]) amounted to 0.159 µM; in experiment [1] (setting [4]) it was 0.000231 µM; in experiment [2] (Homo sapiens, MCF7, 72 h), 0.00948 µM.

For the compound `Cc1cc(C)n2nc(C(=O)N3CC[C@]4(Cc5ccccc5CN4)[C@H](O)C3)nc2n1` [Example 178, (5,7-dimethyl-[1,2,4]triazolo[1,5-a]pyrimidin-2-yl)((3R,3′R)-3′-hydroxy-1,4-dihydro-2H-spiro[isoquinoline-3,4′-piperidin]-1′-yl)methanone], the 50% effective concentration (EC50) stood at 85.1 µM in experiment [1] (setting [3]); 0.129 µM in experiment [1] (setting [4]); 3.21 µM in experiment [2] (Homo sapiens, MCF7, 72 h).

In the case of `Cc1ccnc2nc(C(=O)N3CC[C@]4(Cc5ccccc5CN4)[C@H](O)C3)cn12` [Example 124, [(3R,3′R)-3′-hydroxy-1,4-dihydro-1′H,2H-spiro[isoquinoline-3,4′-piperidin]-1′-yl](5-methylimidazo[1,2-a]pyrimidin-2-yl)methanone], the EC50 amounted to 2.42 µM in experiment [1] (setting [3]); 0.00849 µM in experiment [1] (setting [4]); 3.32 µM in experiment [2] (Homo sapiens, MCF7, 72 h).

With `O=C(c1cn2cc(Br)cc(Br)c2n1)N1CC[C@]2(Cc3ccccc3CN2)[C@H](O)C1` [Example 218, (6,8-dibromoimidazo[1,2-a]pyridin-2-yl)[(3R,3′R)-3′-hydroxy-1,4-dihydro-1′H,2H-spiro[isoquinoline-3,4′-piperidin]-1′-yl]methanone], the EC50 in experiment [1] (setting [4]) is 0.00197 µM; in experiment [2] (Homo sapiens, MCF7, 72 h), 0.00407 µM.

In the case of `Cc1nc(C)c(-c2cnc3nc(C(=O)N4CC[C@]5(Cc6ccccc6CN5)[C@H](O)C4)cn3c2)s1` [Example 79, [6-(2,4-dimethyl-1,3-thiazol-5-yl)imidazo[1,2-a]pyrimidin-2-yl][(3R,3′R)-3′-hydroxy-1,4-dihydro-1′H,2H-spiro[isoquinoline-3,4′-piperidin]-1′-yl]methanone], the EC50 in experiment [1] (setting [4]) came out at 0.00108 µM; in experiment [2] (Homo sapiens, MCF7, 72 h) it was 0.0053 µM.

Regarding `Cc1ccnc2nc(C(=O)N3CC[C@]4(Cc5ccccc5CN4)[C@H](O)C3)nn12` [Example 193, [(3R,3′R)-3′-hydroxy-1,4-dihydro-1′H,2H-spiro[isoquinoline-3,4′-piperidin]-1′-yl](7-methyl[1,2,d]triazolo[1,5-a]pyrimidin-2-yl)methanone], the concentration for a half-maximal effect (EC50) was determined as 27 µM in experiment [1] (setting [4]) and 9.61 µM in experiment [2] (Homo sapiens, MCF7, 72 h).

For the compound `CO[C@H](C)c1cc(-c2sc(C)nc2C)cn2cc(C(=O)N3CC[C@]4(Cc5ccccc5CN4)[C@H](O)C3)nc12` [Example 244, {6-(2,4-dimethyl-1,3-thiazol-5-yl)-8-[(1R)-1-methoxyethyl]imidazo[1,2-a]pyridin-2-yl}[(3R,3′R)-3′-hydroxy-1,4-dihydro-1′H,2H-spiro[isoquinoline-3,4′-piperidin]-1′-yl]methanone], the EC50 in experiment [1] (setting [4]) is 0.000675 µM; in experiment [2] (Homo sapiens, MCF7, 72 h), 0.00168 µM.

Take `COc1cc(Br)cn2cc(C(=O)N3CC[C@]4(Cc5ccccc5CN4)[C@H](O)C3)nc12` [Example 50, (6-bromo-8-methoxyimidazo[1,2-a]pyridin-2-yl)((3R,3’R)-3′-hydroxy-1,4-dihydro-2H-spiro[isoquinoline-3,4′-piperidin]-1′-yl)methanone]: the EC50 in experiment [1] (setting [3]) stood at 0.0624 µM; in experiment [1] (setting [4]), 0.00038 µM; in experiment [2] (Homo sapiens, MCF7, 72 h), 0.00148 µM.

Regarding `Cc1cc(Br)c2nc(C(=O)N3CC[C@]4(Cc5ccccc5CN4)[C@H](O)C3)cn2c1` [Example 49, (8-bromo-6-methylimidazo[1,2-a]pyridin-2-yl)((3R,3’R)-3′-hydroxy-1,4-dihydro-2H-spiro[isoquinoline-3,4′-piperidin]-1′-yl)methanone], the EC50 in experiment [1] (setting [3]) came to 0.347 µM; in experiment [1] (setting [4]), 0.00115 µM; in experiment [2] (Homo sapiens, MCF7, 72 h), 0.00387 µM.
